From PubChem BioAssay (NCI)
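Cultured in 96-well plates, cells were exposed to test compound for 48 hours across five concentrations. Here, GI50 denotes the concentration required for 50% inhibition of growth. TGI: total growth inhibition.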

Columns and labels:
Assay in all cases: growth of human tumour cells (NCI), 48 h
[1] = tested on: 786-0 renal
[2] = tested on: A498 renal
[3] = tested on: A549 NSCLC
[4] = tested on: ACHN renal
[5] = tested on: BT-549 breast
[6] = tested on: CAKI-1 renal
[7] = tested on: CCRF-CEM leukemia
[8] = tested on: COLO 205 colon
[9] = tested on: DU-145 prostate
[10] = tested on: EKVX NSCLC
[11] = tested on: HCC-2998 colon
[12] = tested on: HCT-116 colon
[13] = tested on: HCT-15 colon
[14] = tested on: HL-60(TB) leukemia
[15] = tested on: HOP-62 NSCLC
[16] = tested on: HOP-92 NSCLC
[17] = tested on: HS 578T breast
[18] = tested on: HT29 colon
[19] = tested on: IGROV1 ovarian
[20] = tested on: K-562 leukemia
[21] = tested on: KM12 colon
[22] = tested on: LOX IMVI melanoma
[23] = tested on: M14 melanoma
[24] = tested on: MALME-3M melanoma
[25] = tested on: MCF7 breast
[26] = tested on: MDA-MB-231 breast
[27] = tested on: MDA-MB-435
[28] = tested on: MOLT-4 leukemia
[29] = tested on: NCI-H226 lung
[30] = tested on: NCI-H23 lung
[31] = tested on: NCI-H460 lung
[32] = tested on: NCI-H522 lung
[33] = tested on: NCI/ADR-RES ovarian
[34] = tested on: OVCAR-3 ovarian
[35] = tested on: OVCAR-4 ovarian
[36] = tested on: OVCAR-5 ovarian
[37] = tested on: OVCAR-8 ovarian
[38] = tested on: PC-3 prostate
[39] = tested on: RPMI-8226 leukemia
[40] = tested on: RXF 393 renal
[41] = tested on: SF-268 CNS
[42] = tested on: SF-295 CNS
[43] = tested on: SF-539 CNS
[44] = tested on: SK-MEL-2 melanoma
[45] = tested on: SK-MEL-28 melanoma
[46] = tested on: SK-MEL-5 melanoma
[47] = tested on: SK-OV-3 ovarian
[48] = tested on: SN12C renal
[49] = tested on: SNB-19 CNS
[50] = tested on: SNB-75 CNS
[51] = tested on: SR leukemia
[52] = tested on: SW-620 colon
[53] = tested on: T-47D breast
[54] = tested on: TK-10 renal
[55] = tested on: U251 CNS
[56] = tested on: UACC-257 melanoma
[57] = tested on: UACC-62 melanoma
[58] = tested on: UO-31 renal

Compound: O=C1Nc2cc(Cl)ccc2/C1=C\c1c(-c2ccc(F)cc2)nc2ccccn12
- GI50 [1]: 998 nM
- TGI [1]: 2590 nM
- GI50 [2]: 1310 nM
- TGI [2]: 6030 nM
- GI50 [3]: 690 nM
- TGI [3]: 2150 nM
- GI50 [4]: 1250 nM
- TGI [4]: 3220 nM
- GI50 [5]: 1210 nM
- TGI [5]: 5680 nM
- GI50 [6]: 498 nM
- TGI [6]: 2130 nM
- GI50 [7]: 832 nM
- TGI [7]: > 100000 nM
- GI50 [8]: 552 nM
- TGI [8]: 1940 nM
- GI50 [9]: 1490 nM
- GI50 [10]: 2770 nM
- TGI [10]: > 100000 nM
- GI50 [11]: 1100 nM
- TGI [11]: 2880 nM
- GI50 [12]: 444 nM
- TGI [12]: 1630 nM
- GI50 [13]: 686 nM
- TGI [13]: 7260 nM
- GI50 [14]: 346 nM
- TGI [14]: 1460 nM
- GI50 [15]: 916 nM
- TGI [15]: 2290 nM
- GI50 [16]: 4420 nM
- TGI [16]: 26500 nM
- GI50 [17]: 1660 nM
- TGI [17]: > 20400 nM
- GI50 [18]: 389 nM
- TGI [18]: 1340 nM
- GI50 [19]: 1020 nM
- TGI [19]: 5820 nM
- GI50 [20]: 320 nM
- TGI [20]: > 100000 nM
- GI50 [21]: 573 nM
- TGI [21]: > 100000 nM
- GI50 [22]: 723 nM
- TGI [22]: 2650 nM
- GI50 [23]: 510 nM
- TGI [23]: 2570 nM
- GI50 [24]: 690 nM
- TGI [24]: 2410 nM
- GI50 [25]: 387 nM
- TGI [25]: 2420 nM
- GI50 [26]: 1480 nM
- TGI [26]: 6380 nM
- GI50 [27]: 167 nM
- TGI [27]: 519 nM
- GI50 [28]: 563 nM
- TGI [28]: > 100000 nM
- GI50 [29]: 1320 nM
- TGI [29]: 3650 nM
- GI50 [30]: 765 nM
- TGI [30]: 4450 nM
- GI50 [31]: 408 nM
- TGI [31]: 1490 nM
- GI50 [32]: 239 nM
- TGI [32]: 919 nM
- GI50 [33]: 277 nM
- TGI [33]: 1060 nM
- GI50 [34]: 424 nM
- TGI [34]: 2970 nM
- GI50 [35]: 1450 nM
- TGI [35]: 3000 nM
- GI50 [36]: 1700 nM
- TGI [36]: 5810 nM
- GI50 [37]: 1980 nM
- TGI [37]: 8210 nM
- GI50 [38]: 1140 nM
- TGI [38]: 5390 nM
- GI50 [39]: 1360 nM
- GI50 [40]: 631 nM
- TGI [40]: 2190 nM
- GI50 [41]: 1290 nM
- TGI [41]: > 24600 nM
- GI50 [42]: 376 nM
- TGI [42]: 1730 nM
- GI50 [43]: 915 nM
- TGI [43]: 2950 nM
- GI50 [44]: 458 nM
- TGI [44]: 2190 nM
- GI50 [45]: 995 nM
- TGI [45]: 4590 nM
- GI50 [46]: 559 nM
- TGI [46]: 2040 nM
- GI50 [47]: 1050 nM
- TGI [47]: 2420 nM
- GI50 [48]: 1030 nM
- GI50 [49]: 1150 nM
- TGI [49]: 22100 nM
- GI50 [50]: 304 nM
- TGI [50]: 1340 nM
- GI50 [51]: 112 nM
- TGI [51]: > 100000 nM
- GI50 [52]: 445 nM
- TGI [52]: 2600 nM
- GI50 [53]: 1120 nM
- TGI [53]: 2960 nM
- GI50 [54]: 1380 nM
- TGI [54]: 2990 nM
- GI50 [55]: 541 nM
- TGI [55]: 2090 nM
- GI50 [56]: 5020 nM
- TGI [56]: 48500 nM
- GI50 [57]: 546 nM
- TGI [57]: 12400 nM
- GI50 [58]: 686 nM
- TGI [58]: 2700 nM
